Assay results published in patent US12441703B2, “Carboxamides as modulators of sodium channels” (VERTEX PHARMACEUTICALS INCORPORATED, priority 2019, dated 2025).

What follows are compounds tested against human NaV 1.8 (Homo sapiens, UniProt Q9Y5Y9) (assay: E-VIPR assay for detecting and measuring NaV inhibition properties). Conditions: E-VIPR assay conducted in the presence of human serum; HEK cells expressing truncated human NaV 1.8; read-out: IC50.
Assay type: cell-based
Text: Sodium ion channels are voltage-dependent proteins that can be activated by inducing membrane voltage changes by applying electric fields. The electrical stimulation instrument and methods of use, referred to as E-VIPR, are described in International Publication No. WO 2002/008748 A3 and C.-J. Huang et al. Characterization of voltage-gated sodium channel blockers by electrical stimulation and fluorescence detection of membrane potential, 24 Nature Biotech. 439-46 (2006), both of which are incorporated by reference in their entirety. The instrument comprises a microtiter plate handler, an optical system for exciting the coumarin dye while simultaneously recording the coumarin and oxonol emissions, a waveform generator, a current- or voltage-controlled amplifier, and parallel electrode pairs that are inserted into assay plate wells. Under integrated computer control, this instrument passes user-programmed electrical stimulus protocols to cells within the wells of the microtiter plate.
16-20 hours prior to running the assay on E-VIPR, HEK cells expressing a truncated form of human NaV 1.8 with full channel activity were seeded into microtiter 384-well plates, pre-coated with matrigel, at a density of 25,000 cells per well. 2.5-5% KIR2.1 Bacmam virus was added to the final cell suspension before seeding into cell plates. HEK cells were grown in Dulbecco's Modified Eagle's Medium (DMEM) supplemented with 10% FBS (Fetal Bovine Serum, qualified; Sigma #F4135), 1% NEAA (Non-Essential Amino Acids, Gibco #11140), 1% HEPES (Gibco #15630), 1% Pen-Strep (Penicillin-Streptomycin; Gibco #15140) and 5 μg/ml Blasticidin (Gibco #R210-01). Cells were expanded in vented cap cell culture flasks, with 90-95% humidity and 5% CO2.
Compound Loading Buffer (2× concentration): Na/TMA Cl Bath1 Buffer containing HS (omitted in experiments run in the absence of human serum (HS)) 50%, VABSC-1 1 mM, BSA 0.2 mg/ml (in Bath-1), KCl 9 mM, DMSO 0.75%.
• 1) To reach the final concentration in each well, 400 nL of each compound was pre-spotted (in neat DMSO) into polypropylene compound plates at 250× desired final concentration from an intermediate stock concentration of 0.075 mM, in an 11 point dose response, 3-fold dilution, resulting in a top dose of 300 nM final concentration in the cell plate. Vehicle control (neat DMSO), and positive control (an established NaV1.8 inhibitor, 25 μM final in assay in DMSO) were added manually to the outermost columns of each plate respectively. The compound plate was backfilled with 45 μL per well of Compound Loading Buffer resulting in a 250 fold dilution of compound following a 1:1 transfer of compound into the cell plate (see Step 6). Final DMSO concentration for all wells in the assay was 0.625% (0.75% DMSO was supplemented to the Compound Loading Buffer for a final DMSO concentration of 0.625%). This assay dilution protocol was adjusted to enable a higher dose range to be tested in the presence of HS or if the final assay volume was altered. • 2) Hexyl Dye Solution was prepared. • 3) Cell plates were prepared. On the day of the assay, the media was aspirated, and the cells were washed three times with 80 μL of Bath-1 buffer, maintaining 25 μL residual volume in each well. • 4) 25 μL per well of Hexyl Dye Solution was dispensed into the cell plates. The cells were incubated for 20 minutes at room temperature or ambient conditions in darkness. • 5) 45 μL per well of Compound Loading Buffer was dispensed into compound plates. • 6) The cell plates were washed three times with 80 μL per well of Bath-1 Buffer, leaving 25 µL of residual volume. Then 25 μL per well from compound plate was transferred to each cell plate. The mixture was incubated for 30 minutes at room temperature/ambient conditions. • 7) The cell plate containing compound was read on E-VIPR using the current-controlled amplifier to deliver stimulation wave pulses using a symmetrical biphasic waveform. […]

Sequence of human NaV 1.8 (Q9Y5Y9 whole entry, looked up, the tested form may be a part): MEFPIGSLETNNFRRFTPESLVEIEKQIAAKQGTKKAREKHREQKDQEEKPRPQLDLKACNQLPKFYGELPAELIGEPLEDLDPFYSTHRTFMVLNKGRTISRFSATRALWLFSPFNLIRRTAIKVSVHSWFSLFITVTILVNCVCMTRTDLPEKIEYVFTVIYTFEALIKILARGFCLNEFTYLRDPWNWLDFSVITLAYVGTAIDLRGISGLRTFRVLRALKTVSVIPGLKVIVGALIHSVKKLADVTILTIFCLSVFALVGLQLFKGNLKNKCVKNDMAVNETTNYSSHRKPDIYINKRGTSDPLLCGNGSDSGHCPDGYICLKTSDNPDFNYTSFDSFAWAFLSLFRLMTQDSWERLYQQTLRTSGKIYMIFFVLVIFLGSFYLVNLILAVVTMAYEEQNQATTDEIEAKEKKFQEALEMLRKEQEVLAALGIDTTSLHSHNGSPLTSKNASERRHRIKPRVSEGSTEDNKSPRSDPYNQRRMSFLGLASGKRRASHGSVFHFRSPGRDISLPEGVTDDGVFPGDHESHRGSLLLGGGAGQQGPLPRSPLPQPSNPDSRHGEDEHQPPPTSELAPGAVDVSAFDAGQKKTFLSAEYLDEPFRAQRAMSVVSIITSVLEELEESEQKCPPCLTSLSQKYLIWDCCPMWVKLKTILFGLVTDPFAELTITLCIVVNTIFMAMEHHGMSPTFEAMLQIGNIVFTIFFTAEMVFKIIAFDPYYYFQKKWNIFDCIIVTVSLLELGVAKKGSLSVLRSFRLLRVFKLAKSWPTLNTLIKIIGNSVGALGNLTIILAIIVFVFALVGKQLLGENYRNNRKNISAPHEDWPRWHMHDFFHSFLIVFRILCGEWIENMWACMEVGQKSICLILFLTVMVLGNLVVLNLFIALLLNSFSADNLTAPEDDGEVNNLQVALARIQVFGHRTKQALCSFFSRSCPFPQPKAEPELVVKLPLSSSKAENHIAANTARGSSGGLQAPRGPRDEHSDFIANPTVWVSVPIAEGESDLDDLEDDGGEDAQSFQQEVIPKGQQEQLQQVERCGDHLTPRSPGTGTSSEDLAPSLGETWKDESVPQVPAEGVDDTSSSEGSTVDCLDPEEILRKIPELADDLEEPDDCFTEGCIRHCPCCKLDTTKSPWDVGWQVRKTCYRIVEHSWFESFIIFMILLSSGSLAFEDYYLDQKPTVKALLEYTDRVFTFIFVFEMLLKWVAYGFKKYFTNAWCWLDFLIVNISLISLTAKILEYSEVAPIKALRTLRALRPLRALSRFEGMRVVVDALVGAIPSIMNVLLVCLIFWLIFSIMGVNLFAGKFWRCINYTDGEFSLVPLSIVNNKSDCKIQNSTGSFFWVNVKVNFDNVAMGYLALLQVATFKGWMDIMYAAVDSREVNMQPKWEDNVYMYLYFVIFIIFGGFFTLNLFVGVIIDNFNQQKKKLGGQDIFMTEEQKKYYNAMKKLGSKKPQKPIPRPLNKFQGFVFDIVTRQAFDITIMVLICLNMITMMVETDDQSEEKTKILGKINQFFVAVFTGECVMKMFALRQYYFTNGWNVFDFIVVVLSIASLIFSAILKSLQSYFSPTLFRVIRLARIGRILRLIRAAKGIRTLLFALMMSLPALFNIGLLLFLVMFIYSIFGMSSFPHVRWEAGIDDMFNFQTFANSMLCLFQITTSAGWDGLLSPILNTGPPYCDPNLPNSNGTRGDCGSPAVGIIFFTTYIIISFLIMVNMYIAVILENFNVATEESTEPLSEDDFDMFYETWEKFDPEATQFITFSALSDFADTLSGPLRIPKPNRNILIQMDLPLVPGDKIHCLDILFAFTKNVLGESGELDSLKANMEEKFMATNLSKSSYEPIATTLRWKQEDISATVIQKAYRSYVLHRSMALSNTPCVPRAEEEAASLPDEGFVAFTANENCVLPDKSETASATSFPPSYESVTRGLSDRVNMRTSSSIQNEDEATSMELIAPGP

Row | IC50 [nM] | SMILES
1 | > 3000 | COc1ccc(Cl)cc1Oc1ccc(C(F)(F)F)cc1C(=O)Nc1ccnc(C(N)=O)c1 [Compound 15, 4-[[2-(5-chloro-2-methoxy-phenoxy)-5-(trifluoromethyl)benzoyl]amino]pyridine-2-carboxamide]
2 | 19 | CC(C)Oc1ccc(Oc2ccc(C(F)(F)F)c(F)c2C(=O)Nc2ccnc(C(N)=O)c2)c(F)c1F [Compound 18, 4-[[6-(2,3-difluoro-4-isopropoxy-phenoxy)-2-fluoro-3-(trifluoromethyl)benzoyl]amino]pyridine-2-carboxamide]
3 | 57 | CCOc1ccc(Oc2ccc(C(F)(F)F)c(F)c2C(=O)Nc2ccnc(C(N)=O)c2)c(F)c1F [Compound 19, 4-[[6-(4-ethoxy-2,3-difluoro-phenoxy)-2-fluoro-3-(trifluoromethyl)benzoyl]amino]pyridine-2-carboxamide]
4 | 48 | NC(=O)c1cc(NC(=O)c2c(Oc3ccc(F)cc3Cl)ccc(C(F)(F)F)c2F)ccn1 [Compound 20, 4-[[6-(2-chloro-4-fluoro-phenoxy)-2-fluoro-3-(trifluoromethyl)benzoyl]amino]pyridine-2-carboxamide]
5 | 1000 | COc1cc(Oc2ccc(C(F)(F)F)c(F)c2C(=O)Nc2ccnc(C(N)=O)c2)ccc1F [Compound 21, 4-[[2-fluoro-6-(4-fluoro-3-methoxy-phenoxy)-3-(trifluoromethyl)benzoyl]amino]pyridine-2-carboxamide]
6 | 540 | NC(=O)c1cc(NC(=O)c2c(Oc3ccccc3)ccc(C(F)(F)F)c2F)ccn1 [Compound 22, 4-[[2-fluoro-6-phenoxy-3-(trifluoromethyl)benzoyl]amino]pyridine-2-carboxamide]
7 | 150 | CCOc1ccc(Oc2ccc(C(F)(F)F)c(F)c2C(=O)Nc2ccnc(C(N)=O)c2)cc1 [Compound 23, 4-[[6-(4-ethoxyphenoxy)-2-fluoro-3-(trifluoromethyl)benzoyl]amino]pyridine-2-carboxamide]
8 | 170 | COc1ccc(Cl)cc1Oc1ccc(C(F)(F)F)c(F)c1C(=O)Nc1ccnc(C(N)=O)c1 [Compound 27, 4-[[6-(5-chloro-2-methoxy-phenoxy)-2-fluoro-3-(trifluoromethyl)benzoyl]amino]pyridine-2-carboxamide]
9 | 24 | CC(C)Oc1ccc(Oc2ccc(C(F)(F)F)c(F)c2C(=O)Nc2ccnc(C(N)=O)c2)cc1F [Compound 28, 4-[[2-fluoro-6-(3-fluoro-4-isopropoxy-phenoxy)-3-(trifluoromethyl)benzoyl]amino]pyridine-2-carboxamide]
10 | 43 | NC(=O)c1cc(NC(=O)c2c(Oc3ccc(F)c4c3OCC4)ccc(C(F)(F)F)c2F)ccn1 [Compound 30, 4-[[2-fluoro-6-[(4-fluoro-2,3-dihydrobenzofuran-7-yl)oxy]-3-(trifluoromethyl)benzoyl]amino]pyridine-2-carboxamide]
11 | 17 | CC(C)Oc1ccc(Oc2ccc(C(F)(F)F)c(F)c2C(=O)Nc2ccnc(C(N)=O)c2)cc1Cl [Compound 33, 4-[[6-(3-chloro-4-isopropoxy-phenoxy)-2-fluoro-3-(trifluoromethyl)benzoyl]amino]pyridine-2-carboxamide]
12 | 510 | NC(=O)c1cc(NC(=O)c2c(Oc3ccc(OC4CCCCC4)cc3)ccc(C(F)(F)F)c2F)ccn1 [Compound 35, 4-[[6-[4-(cyclohexoxy)phenoxy]-2-fluoro-3-(trifluoromethyl)benzoyl]amino]pyridine-2-carboxamide]
13 | 26 | CC(C)Oc1ccc(Oc2ccc(C(F)(F)F)c(F)c2C(=O)Nc2ccnc(C(N)=O)c2)cc1 [Compound 37, 4-[[2-fluoro-6-(4-isopropoxyphenoxy)-3-(trifluoromethyl)benzoyl]amino]pyridine-2-carboxamide]
14 | > 3000 | NC(=O)c1cc(NC(=O)c2c(Oc3ccc(C(F)(F)F)nc3)ccc(C(F)(F)F)c2F)ccn1 [Compound 39, 4-[[2-fluoro-3-(trifluoromethyl)-6-[[6-(trifluoromethyl)-3-pyridyl]oxy]benzoyl]amino]pyridine-2-carboxamide]

Further lines, the compound ahead of its results:

Row | SMILES | IC50 [nM]
15 | NC(=O)c1cc(NC(=O)c2cc(C(F)(F)F)ccc2Oc2cccc(C3CCCCC3)c2)ccn1 [Compound 14, 4-[[2-(3-cyclohexylphenoxy)-5-(trifluoromethyl)benzoyl]amino]pyridine-2-carboxamide] | > 3000
16 | COc1cc(Oc2ccc(C(F)(F)F)cc2C(=O)Nc2ccnc(C(N)=O)c2)ccc1F [Compound 16, 4-[[2-(4-fluoro-3-methoxy-phenoxy)-5-(trifluoromethyl)benzoyl]amino]pyridine-2-carboxamide] | > 3000
17 | NC(=O)c1cc(NC(=O)c2cc(C(F)(F)F)ccc2Oc2ccc(F)cc2F)ccn1 [Compound 17, 4-[[2-(2,4-difluorophenoxy)-5-(trifluoromethyl)benzoyl]amino]pyridine-2-carboxamide] | > 3000
18 | NC(=O)c1cc(NC(=O)c2c(Oc3ccc(F)c(F)c3)ccc(C(F)(F)F)c2F)ccn1 [Compound 24, 4-[[6-(3,4-difluorophenoxy)-2-fluoro-3-(trifluoromethyl)benzoyl]amino]pyridine-2-carboxamide] | 200
19 | NC(=O)c1cc(NC(=O)c2c(Oc3ccc(F)c(Cl)c3)ccc(C(F)(F)F)c2F)ccn1 [Compound 25, 4-[[6-(3-chloro-4-fluoro-phenoxy)-2-fluoro-3-(trifluoromethyl)benzoyl]amino]pyridine-2-carboxamide] | 160
20 | Cc1nc(C(F)(F)F)ccc1Oc1ccc(C(F)(F)F)c(F)c1C(=O)Nc1ccnc(C(N)=O)c1 [Compound 26, 4-[[2-fluoro-6-[[2-methyl-6-(trifluoromethyl)-3-pyridyl]oxy]-3-(trifluoromethyl)benzoyl]amino]pyridine-2-carboxamide] | 1300
21 | CCOc1ccc(Oc2ccc(C(F)(F)F)c(F)c2C(=O)Nc2ccnc(C(N)=O)c2)cc1F [Compound 29, 4-[[6-(4-ethoxy-3-fluoro-phenoxy)-2-fluoro-3-(trifluoromethyl)benzoyl]amino]pyridine-2-carboxamide] | 45
22 | COc1c(Oc2ccc(C(F)(F)F)c(F)c2C(=O)Nc2ccnc(C(N)=O)c2)ccc(F)c1F [Compound 31, 4-[[6-(3,4-difluoro-2-methoxy-phenoxy)-2-fluoro-3-(trifluoromethyl)benzoyl]amino]pyridine-2-carboxamide] | 9
23 | Cc1cc(Oc2ccc(C(F)(F)F)c(F)c2C(=O)Nc2ccnc(C(N)=O)c2)ccc1F [Compound 32, 4-[[2-fluoro-6-(4-fluoro-3-methyl-phenoxy)-3-(trifluoromethyl)benzoyl]amino]pyridine-2-carboxamide] | 200
24 | COc1c(F)cccc1Oc1ccc(C(F)(F)F)c(F)c1C(=O)Nc1ccnc(C(N)=O)c1 [Compound 34, 4-[[2-fluoro-6-(3-fluoro-2-methoxy-phenoxy)-3-(trifluoromethyl)benzoyl]amino]pyridine-2-carboxamide] | 120
25 | CC(F)(F)c1cc(F)ccc1Oc1ccc(C(F)(F)F)c(F)c1C(=O)Nc1ccnc(C(N)=O)c1 [Compound 36, 4-[[6-[2-(1,1-difluoroethyl)-4-fluoro-phenoxy]-2-fluoro-3-(trifluoromethyl)benzoyl]amino]pyridine-2-carboxamide] | 180
26 | CCOc1ccc(Oc2ccc(C(F)(F)F)c(F)c2C(=O)Nc2ccnc(C(N)=O)c2)cc1Cl [Compound 38, 4-[[6-(3-chloro-4-ethoxy-phenoxy)-2-fluoro-3-(trifluoromethyl)benzoyl]amino]pyridine-2-carboxamide] | 43
27 | NC(=O)c1cc(NC(=O)c2c(Oc3cccc(C4CCCCC4)c3)ccc(C(F)(F)F)c2F)ccn1 [Compound 40, 4-[[6-(3-cyclohexylphenoxy)-2-fluoro-3-(trifluoromethyl)benzoyl]amino]pyridine-2-carboxamide] | > 3000
